Assay results published in patent US20170029813A1, “METHODS AND SYSTEMS FOR DROPLET TAGGING AND AMPLIFICATION” (President and Fellows of Harvard College, priority 2014, published 2017).

Experiments:
Leukemia K562 cells = experiment: Apoptosis and necrosis by Annexin V / propidium iodide staining of cells in agarose gel particles; type: cell-based; conditions: 48 hr incubation, drops containing 20 micrograms/mL Imatinib mixed at a 1:1 ratio (10 micrograms/mL per FIG. 12), PI and Annexin V staining
Description: In this example, first cells are mixed with molten low melt agarose at 37° C. and together incorporated into droplets. […] An UltraPure low melting point agarose is used in this experiment, which melts at 65.5° C., remains fluid at 37° C. and becomes solid rapidly at temperatures below 25° C. […] In this example, agarose powder was dissolved into PBS and autoclaved to prepare a sterilized 2% (w/v) agarose solution. Cells were counted and suspend in a DMEM culture media with 40% fetal bovine serum, and the cell suspension was mixed with agarose solution at 1:1 volume ratio. The mixture of cells and agarose gel was flowed into the sample inlet of a microfluidic drop-making device, and HFE7500 oil with 2% surfactant was flowed into the oil inlet to cause the cell-containing agarose gel to produce 80 micrometer drops. The generated gel-in-oil drops were collected into a pre-cooled eppendorf tube in an ice bath.
The drops containing agarose gel particles were collected into a pre-cooled eppendorf tube, after which the injected cell-containing agarose gel remained spherical. In the following steps, the agarose gel particles were injected into the drop containing drug combination and drug barcodes, followed by incubation, destabilization, staining, washing and FACS to obtain the gel particles containing positive cells. […]

[1] = system: K562 chronic myeloid leukemia cells; experiment: Apoptosis detection with fluorogenic caspase substrate Caspalux6-J1D2 in bulk and in drops; type: cell-based; conditions: K562 cells treated with Imatinib for 24 hours; both bulk and drop experiment (FIG. 7)
Description: Single K562 chronic myeloid leukemia cells were introduced to the drug combinations by picoinjecting a cell suspension to the merged drops at a concentration known to obtain a Poisson distribution with rate λ (lambda)=0.1, and incubated at 37° C. for 24 hours.
By adding a fluorogenic substrate, caspalux6-J1D2, which is specifically cleaved by increased caspase 3 and caspase 3-like activities during apoptosis, apoptosis of cells in drops can be determined.

Cc1ccc(NC(=O)c2ccc(CN3CCN(C)CC3)cc2)cc1Nc1nccc(-c2cccnc2)n1 [Imatinib]
apoptotic and necrotic cells (Leukemia K562 cells): About 70%
apoptotic signal (Caspalux6-J1D2 fluorescence) [1]: clear apoptotic signal
